The nature of series [1]: Ocular inspection of appearance of aqueous peptide/CPL-Galactolipid mixtures. Particulars: after 2 h and 2 days of storage at room temperature; 0.20% CPL-Galactolipid; LL-25 68-98 ppm, LL-37 98-213 ppm, LL-38 50-102 ppm, LL-20 52-98 ppm. It is filed as physicochemical. Here is the method:
To prepare the solution of the complex the peptide and CPL-Galactolipid are weighed in a 100 ml glass flask and then PBS (10 mM sodium phosphate, 150 mM NaCl, pH 7.4) is added. The sample is vigorously shaken, using a suitable shaker at high speed, for 1-2 h or until the mixture has become clear, and is then allowed to equilibrate and settle for about 30 min at room temperature. Samples of LL-20, LL-25, LL-37 and LL-38 as trifluoroacetate salts and CPL-Galactolipid were prepared using the amounts stated in Table 1 below. The peptide mixtures all contained 0.20% CPL-Galactolipid.
Ocular inspections were made after 2 h and 2 days of storage at room temperature of the mixtures. […] The molecular weight of LL-20 was calculated to be 2.4 kDa.

The target in series [2] is elastase from Pseudomonas aeruginosa (Pseudomonas aeruginosa, UniProt P14756). The experiment in a line: in vitro. Particulars: for RRT 0.66 degradation fragment, normalized peak area / RRT 0.88 degradation fragment, normalized peak area: elastase:peptide approx. 1:2500, 37° C. As for the experimental part: (§1) In this study we compared the enzymatic degradation rate of LL-37 in an aqueous buffered system to that of a colloidal solution of LL-37 in a galactolipid complex. The experimental procedures for enzymatic degradation were essentially as described using a reverse phase HPLC system (C-18) operating at 210 nm.
elastase from Pseudomonas aeruginosa (Pseudomonas aeruginosa, UniProt P14756), sequence (P14756 198-498): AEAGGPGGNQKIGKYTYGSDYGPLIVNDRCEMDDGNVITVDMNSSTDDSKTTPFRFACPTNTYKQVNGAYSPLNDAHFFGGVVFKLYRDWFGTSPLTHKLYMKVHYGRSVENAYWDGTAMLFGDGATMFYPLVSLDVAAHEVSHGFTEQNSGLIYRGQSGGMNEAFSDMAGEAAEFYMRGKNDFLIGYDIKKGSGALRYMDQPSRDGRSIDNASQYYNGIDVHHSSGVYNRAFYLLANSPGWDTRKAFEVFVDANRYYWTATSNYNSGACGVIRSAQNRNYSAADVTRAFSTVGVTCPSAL
(§2) In brief: Two stock solutions A and B were prepared. Solution A, “the reference”, contained 100 μg/ml of LL-37 in PBS, pH 7.4. Solution B, “the complex”, contained in addition to 100 μg/ml LL-37 in PBS, pH 7.4, 0.2% of galactolipids (w/w). Two sets of samples were prepared in Eppendorf tubes, 8 tubes from each stock solution. […] The reactions were kept at 37° C. and samples were withdrawn at predetermined intervals. The reactions were stopped by heating the samples to 100° C. for 5 minutes. After stopping, the reactions were stored at −18° C. prior analysis.
(§3) All samples were analysed in duplicates and the peak area for LL-37 was normalized to that of the negative control, which was set to 1.00. Retention times are given as relative retention time (RRT) to LL-37, which is set to RRT=1.00.

For series [3], the system named is elastase from Pseudomonas aeruginosa. The experiment in a line: in vitro. As to conditions: isolated enzyme elastase, pH 7.4. As for the experimental part:
as §1, §2, §3

The conditions of series [4]: at certain weight ratios; cited from earlier work.
The conditions of series [5]: when complexed with galactolipids; cited from earlier work.
Series [6] concerns Bacillius megaterium. The experiment in a line: Inhibition zone assay of antimicrobial activity. As to conditions: complex with CPL-Galactolipid; LL-25 at 68 ppm. In kind it is cell-based. Here is the method: Test of antimicrobial activity of LL-20 and LL-25 complexes The antimicrobial activity was tested using an inhibition zone assay. As a test bacterium, Bacillius megaterium was used.

On to “LLGDFFRKSKEKIGKEFKRIVQRIKDFLRNLVPRTESS [LL-38]”, for which, in series [1], the “Ocular inspection of the mixtures” value is given as “clear or almost clear solutions”.

Broadly, the amount remaining is the share of the starting amount still present when the sample was taken. For `CC[C@H](C)[C@H](NC(=O)[C@H](CCCCN)NC(=O)[C@H](CCC(=O)O)NC(=O)[C@H](CCCCN)NC(=O)[C@H](CO)NC(=O)[C@H](CCCCN)NC(=O)[C@H](CCCNC(=N)N)NC(=O)[C@H](Cc1ccccc1)NC(=O)[C@H](Cc1ccccc1)NC(=O)[C@H](CC(=O)O)NC(=O)CNC(=O)[C@H](CC(C)C)NC(=O)[C@@H](N)CC(C)C)C(=O)NCC(=O)N[C@@H](CCCCN)C(=O)N[C@@H](CCC(=O)O)C(=O)N[C@@H](Cc1ccccc1)C(=O)N[C@@H](CCCCN)C(=O)N[C@@H](CCCNC(=N)N)C(=O)N[C@H](C(=O)N[C@H](C(=O)N[C@@H](CCC(N)=O)C(=O)N[C@@H](CCCNC(=N)N)C(=O)N[C@H](C(=O)N[C@@H](CCCCN)C(=O)N[C@@H](CC(=O)O)C(=O)N[C@@H](Cc1ccccc1)C(=O)N[C@@H](CC(C)C)C(=O)N[C@@H](CCCNC(=N)N)C(=O)N[C@@H](CC(N)=O)C(=O)N[C@@H](CC(C)C)C(=O)N[C@H](C(=O)N1CCC[C@H]1C(=O)N[C@@H](CCCNC(=N)N)C(=O)N[C@H](C(=O)N[C@@H](CCC(=O)O)C(=O)N[C@@H](CO)C(=O)O)[C@@H](C)O)C(C)C)[C@@H](C)CC)C(C)C)[C@@H](C)CC` [LL-37 in aqueous buffer], the “RRT 0.66 degradation fragment, normalized peak area” value amounted to 0.1 in series [2] (1 min); 0.14 in series [2] (5 min); 0.27 in series [2] (15 min); 0.54 in series [2] (30 min); 0.46 in series [2] (1 h); 0.31 in series [2] (4 h). Further, the “RRT 0.66 degradation fragment, normalized peak area” value in series [2] (20 h) amounted to 0.08. Besides, the “RRT 0.88 degradation fragment, normalized peak area” value turned out to be 0.4 in series [2] (1 min), 0.36 in series [2] (5 min) and 0.04 in series [2] (15 min). Also, the “Degradation when treated with elastase” value in series [2] (elastase from Pseudomonas aeruginosa, 37° C., up to 20 h) is reported as “rapidly degraded”. Also, the “RRT 1.00 (LL-37) peak area normalized to negative control (1.00)” value in series [2] (time 0, 100 μg/ml LL-37, PBS pH 7.4, 37° C.) is 1.00. In series [3], the share remaining at 1 min, 100 μg/ml amounted to 30%. This compound gave an amount remaining at 5 min, 100 μg/ml in series [3] of 23%.

As for “LLGDFFRKSKEKIGKEFKRIVQRIKDFLRNLVPRTES [LL-37]”, the “Ocular inspection of the mixtures” value in series [1] was “clear or almost clear solutions”. In addition, in series [4], the “Formation of colloidal solutions with galactolipids” value was “formed stable, clear colloidal solutions”. Further, the In vitro cytotoxicity entry in series [5] was “reduced”.

Consider LLGDFFRKSKEKIGKEFKRIVQRIK [LL-25], for which the “Ocular inspection of the mixtures” value in series [1] was “clear or almost clear solutions”. In addition, the Antimicrobial activity entry in series [6] is “showed an antimicrobial activity”.

These data come from patent US20080058249A1, “Complexes” (Lipopeptide AB, priority 2004, published 2008).
